The values that follow come from paper PMC8397418, “Novel Bis-Thiazole Derivatives: Synthesis and Potential Cytotoxic Activity Through Apoptosis With Molecular Docking Approaches” (Frontiers in Chemistry, 2021).

The subject of data set [1] is A2780 ovarian cancer cells. The data set is described as follows: MTT cytotoxicity assay, A2780. Format: cell-based, human. Conditions: read-out: IC50 A2780 (Ovarian). Here is the method: (§1) The synthesized derivatives were screened for their cytotoxic activities against five cancer cell lines (two breast cancer cell lines: MCF-7 and MDA-MB-231, two ovarian cancer cell lines: A2780 and KF-28, and one cervical cancer cell line: Hela). This study was performed using serial concentrations of 25, 50, 100, 150, and 200 µM of each compound using the MTT assay. Percentages of cell viability of the tested compounds with serial concentration against the tested panel of cell lines are depicted in Figure 1, in which there is a decrease in the cell viability with increasing concentrations in a dose–response pattern. […] Therefore, compounds 5a, 5b, and 5f were thought worthwhile to further investigate their effects as either cytotoxic or antiproliferative effects and whether any of them is an inducer of apoptotic cell death in the representative cancer cell lines KF-28 and A2780.
(§2) The human ovarian serous carcinoma cell line KF-28 was kindly provided by Prof. Yoshihiro Kikuchi (Department of Obstetrics and Gynecology, National Defense Medical College, Saitama, Japan), and A2780 cell line was purchased from the ECACC (ECACC 93112519). The cells were maintained in RPMI-1640 (Sigma-Aldrich, United States). The cervical cancer cell line, Hela cells, breast cancer cell line, MCF-7, and MDA-MB-231 were purchased from the ATCC and cultured in DMEM. Both types of media were supplemented with 2 mM L-glutamine (Lonza, Belgium), 10% FBS (Sigma, St. Louis, MO, United States), and 1% penicillin/streptomycin (Lonza, Belgium). All cells were incubated at 37°C in 5% CO2 atmosphere (NuAire). All cancer cell lines were cultured according to the routine tissue culture work as discussed by the Freshney group ([Freshney, 2010]). The cells were plated at a density of 5,000 cells in triplicates in a 96-well plate. On the next day, the cells were treated with the indicated compound(s) at the indicated concentrations in a final volume of 100 μL media. Cell viability was assessed after 72 h using MTT solution (Promega) ([Mosmann, 1983]). 20 μL of the reagent was added to each well, the plate was incubated for 3 h, […] was subsequently measured (570 nm) using a plate reader, and then the IC50 values were calculated using Excel ([Tantawy et al., 2020]).

Data set [2] relates to MDA-MB-231 breast cancer cells. The data set is described as follows: MTT cytotoxicity assay, MDA-MB-231. Format: cell-based. Conditions: Homo sapiens, read-out: IC50 MDA-MB-231 (Breast). Here is the method:
as §1, §2
(In general: Tetrazolium assays rely on reduction of a dye to a coloured formazan, in cell work by metabolically active cells.)

In data set [3] the test system is KF-28 ovarian cancer cells. The data set is described as follows: MTT cytotoxicity assay, KF-28. Format: cell-based, human. To be noted: 72 h, read-out: IC50 KF-28 (Ovarian). How it is done: as §1, §2
In data set [4] the test system is MCF-7 breast cancer cells. In words: MTT cytotoxicity assay, MCF-7. Format: cell-based, human. Conditions: read-out: IC50 MCF-7 (Breast). Here is the method: as §1, §2
Data set [5] deals with KF-28 cells. The data set is described as follows: Annexin V-FITC/PI apoptosis assessment. To be noted: 48 h, cisplatin 10 μM, DMSO control 0.45%. Format: cell-based, human. Here is the method: Therefore, we decided to use such technique to investigate if the cytotoxic effect of the compounds indicated by MTT and the cell cycle experiments is apoptotic cell death or not. For that purpose, two cell lines, KF-28 and A2780, were stained by annexin V/PI after treatment with different compounds vs. DMSO for two days in parallel with cisplatin as a reference drug. Results from annexin staining analysis show appreciated annexin V–stained populations when cells are treated with compounds 5a–c, 5f, and 9. […] Similar results were obtained from the other cell line, A2780, treated with the same compounds (Figure 2B).
(§3) The cells were seeded into six-well culture plates (3–5 × 10^5 cells/well) and incubated overnight at 37°C, under 5% CO2. The cells were then treated with indicated compounds for 48 h. Next, media supernatants and the cells were collected and washed with ice-cold PBS. Next, the cells were stained with PI (10 mg/ml) for 30 min and analyzed for DNA contents using flow cytometry analysis using an FL2 (λex/em 535/617 nm) signal detector (ACEA Novocyte™ flow cytometer, ACEA Biosciences, Inc., San Diego, CA, United States). For each sample, 12,000 events are acquired. Cell cycle distribution is calculated using a CytoFLex machine and analyzed by CytExpert software. Flow cytometric methodologies (annexin V/PI staining with cell cycle analyses) are carried out as previously described ([Nafie et al., 2020a]; [Nafie et al., 2020b]; [Gad et al., 2020]).

For data set [6], the system named is KF-28 cells. The data set is described as follows: DNA content and cell cycle analysis (PI, flow cytometry). Format: cell-based, human. To be noted: 200 µM, 48 h. How it is done: Studying the cell cycle phases by measuring DNA content is a crucial test that helps in evaluating the impact of a given drug(s) on dividing cells and may reflect the mechanism through which this drug(s) affects those cells. […] Compounds 5a, 5b, 5c, 5f, 5g, and 9 were added to similar numbers of cells at 200 µM for 48 h, and then, the different cell cycle phases were assessed by flow cytometric analysis.
as §3
(In general: A flow cytometer gives signals particle by particle.)

Data set [7] relates to Hela cervical cancer cells. The data set is described as follows: MTT cytotoxicity assay, Hela. Type of data set: cell-based. To be noted: Homo sapiens, 72 h. Here is the method:
as §1, §2

The subject of data set [8] is MEF normal mouse embryonic fibroblast. The data set is described as follows: MTT cytotoxicity assay, MEF. Format: cell-based. To be noted: n = 3.
Where [9] appears, read: Homo sapiens, A2780, MTT, 72 h, n = 3.
[10] abbreviates: Homo sapiens, MCF7, MTT, 72 h, n = 3.
Setting [11] is: MTT, n = 3, read-out: IC50 Hela (Cervical).

Each structure is given as a SMILES string. pIC50: −log10 of the molar value. Where two headings read alike, the source gives them in different places.

Turning to `c1ccc2oc(-c3csc(=NN=C4CCC(=NN=c5[nH]c(-c6cc7ccccc7o6)cs5)CC4)[nH]3)cc2c1` [13b, 1,4-Bis((4-(2-benzofuryl)thiazol-2-ylidene)hydrazono)cyclohexane], the melting point lay in the range of 269 to 270 °C.
`O=C1CSC(=NN=C2CCC(=NN=C3NC(=O)CS3)CC2)N1` [compound 9, 1,4-Bis((4-oxo-thiazolidin-2-ylidene)hydrazono)cyclohexane]: the pIC50 in data set [1] (setting [9]) is 3.99; in [2] (MDA-MB-231, MTT, 72 h, n = 3) it was less than 3.70; in [3] (Homo sapiens, MTT, n = 3), 4.06; in [4] (setting [10]) it was less than 3.70; in [7] (setting [11]) it was 3.95; in data set [8], 5.98. Also, in the data set with KF-28 cells [5], the “Total apoptotic cell death (annexin V-positive cells)” value is reported as “did not induce appreciated apoptosis”. In addition, the “Cell cycle phase S population” value with KF-28 cells [6] was 6.5%. The “Cell cycle phase G1 population” value with KF-28 cells [6] (DMSO control 72%) was 78%.
Compound `c1ccc2sc(-c3csc(=NN=C4CCC(=NN=c5[nH]c(-c6nc7ccccc7s6)cs5)CC4)[nH]3)nc2c1` [13a, 1,4-Bis((4-(2-benzothiazolyl)thiazol-2-ylidene)hydrazono)cyclohexane] came in with a melting point greater than 300 °C. In addition, the pIC50 in data set [1] (setting [9]) was 4.56. Moreover, the pIC50 in data set [2] (MDA-MB-231, MTT, 72 h, n = 3) is less than 3.70. In addition, the pIC50 in [3] (Homo sapiens, MTT, n = 3) is less than 3.70. Moreover, in data set [4] (setting [10]), the pIC50 was less than 3.70. In [7] (setting [11]), the pIC50 is less than 3.70.
As to `Cc1ccccc1N=Nc1sc(=NN=C2CCC(=NN=c3[nH]c(C)c(N=Nc4ccccc4C)s3)CC2)[nH]c1C` [5e, 1,4-Bis((5-(2-tolylazo)-4-methylthiazol-2-ylidene)hydrazono)cyclohexane], the pIC50 is 4.15 in [1] (setting [9]); less than 3.70 in data set [2] (MDA-MB-231, MTT, 72 h, n = 3); less than 3.70 in data set [3] (Homo sapiens, MTT, n = 3); greater than 4.60 in data set [4] (setting [10]); less than 3.70 in data set [7] (setting [11]).
`CC(=O)c1sc(=NN=C2CCC(=NN=c3[nH]c(C)c(C(C)=O)s3)CC2)[nH]c1C` [compound 11, 1,4-Bis((5-acetyl-4-methylthiazol-2-ylidene)hydrazono)cyclohexane] returned a melting point of 280 to 281 °C.
`Clc1ccc(-c2csc(=NN=C3CCC(=NN=c4[nH]c(-c5ccc(Cl)cc5)cs4)CC3)[nH]2)cc1` [13d, 1,4-Bis((4-(4-chlorophenyl)thiazol-2-ylidene)hydrazono)cyclohexane] returned a melting point of 230 to 231 °C. For the same compound, the pIC50 in data set [4] (setting [10]) was less than 3.70. The pIC50 in data set [7] (setting [11]) was less than 3.70.
Take `O=C1NC(=NN=C2CCC(=NN=C3NC(=O)C(=Cc4ccc(Cl)cc4)S3)CC2)SC1=Cc1ccc(Cl)cc1` [14c, 1,4-Bis((5-(4-chlorobenzylidene)-4-oxo-thiazolidin-2-ylidene)hydrazono)cyclohexane]: the melting point is greater than 300 °C.
The same measure, in the same setting: in the case of `Cc1ccc(C=C2SC(=NN=C3CCC(=NN=C4NC(=O)C(=Cc5ccc(C)cc5)S4)CC3)NC2=O)cc1` [14b, 1,4-Bis((5-(4-methylbenzylidene)-4-oxo-thiazolidin-2-ylidene)hydrazono)cyclohexane] it was 269 to 270 °C.
On the same count and under the same terms, the result for `O=C1NC(=NN=C2CCC(=NN=C3NC(=O)C(=Cc4ccccc4)S3)CC2)SC1=Cc1ccccc1` [14a, 1,4-Bis((5-benzylidene-4-oxo-thiazolidin-2-ylidene)hydrazono)cyclohexane] reads greater than 300 °C.
As to `Cc1[nH]c(=NN=C2CCC(=NN=c3[nH]c(C)c(N=Nc4ccc([N+](=O)[O-])cc4)s3)CC2)sc1N=Nc1ccc([N+](=O)[O-])cc1` [5d, 1,4-Bis((5-(4-nitrophenylazo)-4-methylthiazol-2-ylidene)hydrazono)cyclohexane], the melting point was greater than 300 °C. Also, the pIC50 in [1] (Homo sapiens, A2780, 72 h) was less than 3.70. The pIC50 in data set [2] (MDA-MB-231, 72 h) was less than 3.70. In addition, the pIC50 in data set [3] (Homo sapiens) is less than 3.70. In data set [4] (Homo sapiens, MCF7, 72 h), the negative-log IC50 (pIC50) is less than 3.70. For the same compound, the pIC50 in data set [7] (read-out: IC50 Hela (Cervical)) is less than 3.70.
With `N.N.[Cl][Pt][Cl]` [Cisplatin, cisplatin, reference compound], the pIC50 was 5.81 in [1] (MTT, 72 h, n = 3); 5.03 in [3] (MTT, n = 3); 5.92 in [4] (MTT, 72 h, n = 3). For the same compound, in the data set with KF-28 cells [5], the “Total apoptotic cell death (annexin V-positive cells)” value was determined as 25%.
In the case of `O=c1oc2ccccc2cc1-c1csc(=NN=C2CCC(=NN=c3[nH]c(-c4cc5ccccc5oc4=O)cs3)CC2)[nH]1` [13c, 1,4-Bis((4-(3-coumarinyl)thiazol-2-ylidene)hydrazono)cyclohexane], the melting point lay within 241 to 242 °C. In addition, in [1] (setting [9]), the pIC50 was 4.47. In [3] (Homo sapiens, MTT, n = 3), the pIC50 was 4.07. For the same compound, the pIC50 in [4] (setting [10]) is 3.75. Also, the pIC50 in [7] (setting [11]) was less than 3.70.
Regarding `O=C1NC(=NN=C2CCC(=NN=C3NC(=O)C(=Cc4ccc(Br)cc4)S3)CC2)SC1=Cc1ccc(Br)cc1` [14d, 1,4-Bis((5-(4-bromobenzylidene)-4-oxo-thiazolidin-2-ylidene)hydrazono)cyclohexane], the melting point fell in the range of 290 to 291 °C.

For orientation: melting point means the temperature of the solid-liquid transition. For orientation: pIC50 means the IC50 on a negative log10 scale, so that one unit is a factor of ten.
